According to patent publication US12378211B2, “Carbonic anhydrase inhibitors and antibiotics against multidrug resistant bacteria” (Purdue Research Foundation, priority 2018, dated 2025):
Values after ≈ are worked out from the molar mass of the structure shown. Read-outs that look alike come from different tables or passages of the source.

Tests used:
[1] = tested on: Lactobacillus casei ATCC 334; test: MIC against human normal gut microbiota; assay type: cell-based; conditions: Lacticaseibacillus casei, ATCC334; MRS broth, 5% CO2, 48 hours; read-out: MIC
Summary of the method: (§1)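 Anaerobic gut strains in hemin/vitamin K/L-cysteine-supplemented BHI, Lactobacillus in MRS with 5% CO2. All at ~5×10^5 CFU/ml and 37° C, with 48 h exposure to compound dilution series.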

[2] = tested on: Bifidobacterium breve—JCP7499 HIM 1120; test: MIC against human normal gut microbiota; assay type: cell-based; conditions: Bifidobacterium; BHIS broth, anaerobic, 48 hours; read-out: MIC
Summary of the method: as §1

[3] = tested on: Bacteroides dorei—CL02T12C06 HM-719; test: MIC against human normal gut microbiota; assay type: cell-based; conditions: Bacteroides; BHIS broth, anaerobic, 48 hours; read-out: MIC
Summary of the method: as §1

[4] = tested on: Bifidobacterium longum subsp. Longum—44B HM 845; test: MIC against human normal gut microbiota; assay type: cell-based; conditions: Bifidobacterium longum; BHIS broth, anaerobic, 48 hours; read-out: MIC
Summary of the method: as §1

[5] = tested on: Bacteroides fragilis—CL07T00C01 HIM-709; test: MIC against human normal gut microbiota; assay type: cell-based; conditions: Bacteroides; BHIS broth, anaerobic, 48 hours; read-out: MIC
Summary of the method: as §1

[6] = tested on: Mutant-7 of Enterococcus fecalis NR 31975; test: microbe, parasite or virus in culture; assay type: cell-based; conditions: Enterococcus
[7] = tested on: Staphylococcus epidermidis NRS 101; test: MIC against Staphylococci, broth microdilution; assay type: cell-based; conditions: Staphylococcus epidermidis, NRS101; TSB; read-out: MIC
Summary of the method: (§2)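 CLSI broth microdilution in tryptone soy broth, inoculum about 5×10^5 CFU/mL from overnight agar cultures at 0.5 McFarland, with serially diluted compound. Plates were incubated aerobically at 37° C for 18-20 h. MIC was the lowest concentration with no visible growth.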

[8] = tested on: MRSA NRS 384 (MRSA USA300); test: MIC against Staphylococci, broth microdilution; assay type: cell-based, Staphylococcus aureus; conditions: Staphylococcus aureus; TSB; read-out: MIC
Summary of the method: as §2

[9] = tested on: Mutant-13 of Enterococcus fecalis NR 31975; test: microbe, parasite or virus in culture; assay type: cell-based; conditions: Enterococcus
[10] = tested on: Mutant-9 of Enterococcus fecalis NR 31975; test: microbe, parasite or virus in culture; assay type: cell-based; conditions: Enterococcus
[11] = tested on: Mutant-3 of Enterococcus fecalis NR 31975; test: microbe, parasite or virus in culture; assay type: cell-based; conditions: Enterococcus
[12] = tested on: Mutant-12 of Enterococcus fecalis NR 31975; test: microbe, parasite or virus in culture; assay type: cell-based; conditions: Enterococcus
[13] = tested on: Mutant-5 of Enterococcus fecalis NR 31975; test: microbe, parasite or virus in culture; assay type: cell-based; conditions: Enterococcus
[14] = tested on: Mutant-2 of Enterococcus fecalis NR 31975; test: microbe, parasite or virus in culture; assay type: cell-based; conditions: Enterococcus
[15] = tested on: Enterococcus faecium Patient #2-1-NR-31909; test: MIC, broth microdilution in TSB; assay type: cell-based; conditions: Enterococcus faecium, TSB
Summary of the method: (§3)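 Strains were grown aerobically overnight on tryptone soya agar at 37° C, adjusted to 0.5 McFarland and diluted to about 5×10^5 CFU/mL. Compounds were serially diluted across the wells, and plates were incubated aerobically at 37° C for 18-20 hours.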

[16] = tested on: Enterococcus faecalis—S613 HM-334; test: MIC, broth microdilution in TSB; assay type: cell-based; conditions: Enterococcus, TSB
Summary of the method: as §3

[17] = tested on: Enterococcus fecalis Strain SF 24397 NR31970; test: MIC, broth microdilution in TSB; assay type: cell-based; conditions: Enterococcus, TSB
Summary of the method: as §3

[18] = tested on: Enterococcus faecium Patient #3-1 NR-31912; test: MIC, broth microdilution in TSB; assay type: cell-based; conditions: Enterococcus faecium, TSB
Summary of the method: as §3

[19] = tested on: Enterococcus fecalis Strain MMH594-NR31975; test: MIC, broth microdilution in TSB; assay type: cell-based; conditions: Enterococcus, TSB
Summary of the method: as §3

[20] = tested on: Enterococcus fecalis Strain SF24413 NR31971; test: MIC, broth microdilution in TSB; assay type: cell-based; conditions: Enterococcus, TSB
Summary of the method: as §3

[21] = tested on: Enterococcus fecalis Strain SF 28073-NR31972; test: MIC, broth microdilution in TSB; assay type: cell-based; conditions: Enterococcus, TSB
Summary of the method: as §3

[22] = tested on: Enterococcus faecium E417-HM-965; test: MIC, broth microdilution in TSB; assay type: cell-based; conditions: Enterococcus faecium, E417HM965, TSB
Summary of the method: as §3

[23] = tested on: Mutant-15 of Enterococcus fecalis NR 31975; test: microbe, parasite or virus in culture; assay type: cell-based; conditions: Enterococcus
[24] = tested on: Mutant-11 of Enterococcus fecalis NR 31975; test: microbe, parasite or virus in culture; assay type: cell-based; conditions: Enterococcus
[25] = tested on: Mutant-6 of Enterococcus fecalis NR 31975; test: microbe, parasite or virus in culture; assay type: cell-based; conditions: Enterococcus

SMILES	MIC [1] [µg/mL]	MIC [2] [µg/mL]	MIC [3] [µg/mL]	MIC [4] [µg/mL]	MIC [5] [µg/mL]	MIC [7] [µg/mL]	MIC [8] [µg/mL]	MIC ([15]; Table 1, read-out: MIC) [µg/mL]	MIC ([15]; Table 7, read-out: MIC in TSB) [µg/mL]	MIC ([16]; Table 1, read-out: MIC) [µg/mL]	MIC ([16]; Table 7, read-out: MIC in TSB) [µg/mL]	MIC ([17]; Table 1, read-out: MIC) [µg/mL]	MIC ([17]; Table 7, read-out: MIC in TSB) [µg/mL]	MIC ([18]; Table 1, read-out: MIC) [µg/mL]	MIC ([18]; Table 7, read-out: MIC in TSB) [µg/mL]	MIC ([19]; Table 1, read-out: MIC) [µg/mL]	MIC ([19]; Table 7, read-out: MIC in TSB) [µg/mL]	MIC ([20]; Table 1, read-out: MIC) [µg/mL]	MIC ([20]; Table 7, read-out: MIC in TSB) [µg/mL]	MIC ([21]; Table 1, read-out: MIC) [µg/mL]	further results
CC(=O)Nc1nnc(S(N)(=O)=O)s1 [Acetazolamide, reference compound]	> 64	> 64	> 64	> 64	> 64	> 64	> 64	2 (≈ 9 µM)	2 (≈ 9 µM)	2 (≈ 9 µM)	2 (≈ 9 µM)	2 (≈ 9 µM)	2 (≈ 9 µM)	2 (≈ 9 µM)	2 (≈ 9 µM)	4 (≈ 18 µM)	4 (≈ 18 µM)	4 (≈ 18 µM)	4 (≈ 18 µM)	4 (≈ 18 µM)	MIC [6]: 16 µg/mL (≈ 72 µM); MIC [9]: 32 µg/mL (≈ 144 µM); MIC [10]: 16 µg/mL (≈ 72 µM); MIC [11]: 32 µg/mL (≈ 144 µM); MIC [12]: 32 µg/mL (≈ 144 µM); MIC [13]: 32 µg/mL (≈ 144 µM); MIC [14]: 16 µg/mL (≈ 72 µM); MIC ([21]; Table 7, read-out: MIC in TSB): 4 µg/mL (≈ 18 µM); MIC ([22]; Table 1, read-out: MIC): 2 µg/mL (≈ 9 µM); MIC ([22]; Table 7, read-out: MIC in TSB): 2 µg/mL (≈ 9 µM); MIC [23]: 32 µg/mL (≈ 144 µM); MIC [24]: 16 µg/mL (≈ 72 µM); MIC [25]: 32 µg/mL (≈ 144 µM)
CC(C)(C)C(=O)Nc1nnc(S(N)(=O)=O)s1 [CAI0010, N-(5-Sulfamoyl-1,3,4-thiadiazol-2-yl) pivalamide]	> 64	> 64	> 64	> 64	> 64	> 64	> 64	0.5 (≈ 1.89 µM)	0.125 (≈ 0.473 µM)	0.5 (≈ 1.89 µM)	0.125 (≈ 0.473 µM)	0.5 (≈ 1.89 µM)	0.25 (≈ 0.946 µM)	1 (≈ 3.78 µM)	0.25 (≈ 0.946 µM)	1 (≈ 3.78 µM)	0.25 (≈ 0.946 µM)	0.5 (≈ 1.89 µM)	0.25 (≈ 0.946 µM)	0.5 (≈ 1.89 µM)	MIC [6]: 4 µg/mL (≈ 15.1 µM); MIC [9]: 4 µg/mL (≈ 15.1 µM); MIC [10]: 8 µg/mL (≈ 30.3 µM); MIC [11]: 4 µg/mL (≈ 15.1 µM); MIC [12]: 8 µg/mL (≈ 30.3 µM); MIC [13]: 4 µg/mL (≈ 15.1 µM); MIC [14]: 8 µg/mL (≈ 30.3 µM); MIC ([21]; Table 7, read-out: MIC in TSB): 0.5 µg/mL (≈ 1.89 µM); MIC ([22]; Table 1, read-out: MIC): 0.5 µg/mL (≈ 1.89 µM); MIC ([22]; Table 7, read-out: MIC in TSB): 0.25 µg/mL (≈ 0.946 µM); MIC [23]: 4 µg/mL (≈ 15.1 µM); MIC [24]: 4 µg/mL (≈ 15.1 µM); MIC [25]: 16 µg/mL (≈ 60.5 µM)
CC(C)C(=O)Nc1nnc(S(N)(=O)=O)s1 [CAI0011, N-(5-Sulfamoyl-1,3,4-thiadiazol-2-yl) isobutyramide]	> 64	> 64	> 64	> 64	> 64	> 64	> 64	1 (≈ 4 µM)	1 (≈ 4 µM)	2 (≈ 7.99 µM)	2 (≈ 7.99 µM)	2 (≈ 7.99 µM)	2 (≈ 7.99 µM)	1 (≈ 4 µM)	1 (≈ 4 µM)	2 (≈ 7.99 µM)	2 (≈ 7.99 µM)	2 (≈ 7.99 µM)	2 (≈ 7.99 µM)	2 (≈ 7.99 µM)	MIC ([21]; Table 7, read-out: MIC in TSB): 2 µg/mL (≈ 7.99 µM); MIC ([22]; Table 1, read-out: MIC): 1 µg/mL (≈ 4 µM); MIC ([22]; Table 7, read-out: MIC in TSB): 1 µg/mL (≈ 4 µM)
